Results: the OPERA property sets (Mansouri et al. 2018)

CC1Cc2ccccc2CN1 (stereo not given)
logP: 1.93

Cc1cc2ccccc2o1
logP: 3.22

Oc1ccc(O)c2ccccc12
logP: 1.9

CCCOc1cc(Br)c(Cc2cnc(N)nc2N)cc1OC
logP: 2.84

C[C@H]1O[C@@H](O[C@H]2CC[C@@]3(C)[C@H](CC[C@@H]4[C@@H]3CC[C@]3(C)[C@@H](C5=CC(=O)OC5)[C@@H](O)C[C@]43O)C2)C[C@H](O)[C@@H]1O
logP: 1.77

N#CSO
logP: 0.32

C=C1CCC2C(C1)c1c(OCc3ccc(-c4ccccc4)cc3)cc(CCCCC)cc1OC2(C)C (stereo not given)
logP: 11.3

CO[C@@]1(NC(=O)Cc2cccs2)C(=O)N2C(C(=O)O)=C(COC(N)=O)CS[C@@H]21
logP: -0.02

COCc1cnc(-c2ccc(OCC(O)CNCCc3ccc(OC)c(OC)c3)cc2)[nH]1 (stereo not given)
logP: 1.71

Cc1nc(Cl)c(C#N)cc1-c1ccccc1
logP: 3.24

Cc1cccc(C)c1NC(=O)CCCCCN
logP: 1.29

COc1cc(C)c(/C=C/C(C)=C/C=C/C(C)=C/C(=O)O)c(C)c1C
logP: 6.4

O=[N+]([O-])c1ccc(O)cc1O
logP: 1.05

O=C(COc1ccc(OCCNCC(O)COc2ccccc2)cc1)N1CCCCC1 (stereo not given)
logP: 2.6

CC(C)(C)c1cc(C2C(=O)c3ccccc3C2=O)cc(C(C)(C)C)c1
logP: 6.86

Cn1c([N+](=O)[O-])cnc1/C=C/c1ccnc(N)n1
logP: 0.85

CCc1cccc(C2C(=O)c3ccccc3C2=O)c1
logP: 3.92

CCOC(=O)C1=C(C)OC(=Cc2ccc(OC)cc2)C1=O
logP: 2.96

O=C1Nc2ccccc2C1c1ccccc1 (stereo not given)
logP: 2.59

CNCCCN1c2ccccc2Sc2ccc(Cl)cc21
logP: 4.94

Cc1cnc2n(c1=O)C(C)CCC2 (stereo not given)
logP: 0.82

NC1CCc2ccccc2C1 (stereo not given)
logP: 2.08

NNc1nncc2ccccc12
logP: 1

O=C1c2ccccc2C(=O)C1c1ccc(Cl)cc1
logP: 3.61

O=C1CC(Oc2ccc(C(=O)CCc3ccccc3)cc2)N1 (stereo not given)
logP: 2.48

CC(=O)C(C)CN1CCCCC1 (stereo not given)
logP: 1.28

CNC(=O)OCc1c2c(n3c1C(OC(C)=O)CC3)C(=O)C=C(N1CCCC1)C2=O (stereo not given)
logP: 1.4

Cc1ncc(CO)c(CO)c1O
logP: -0.77

CNC(=O)NS(=O)(=O)c1ccc(Cl)cc1
logP: 1.16

Nc1ccc(S(=O)(=O)Nc2ccccc2[N+](=O)[O-])cc1
logP: 2.11

CC1(C)CC(N)CC(C)(C)N1O
logP: 0.56

O=C(NC1CCCCC1)NS(=O)(=O)c1ccc(Cl)cc1
logP: 3.38

NC(=O)c1ccccc1OCc1ccc([N+](=O)[O-])cc1
logP: 1.73

Cc1ccc2c(c1)C(c1ccccc1)=NCC(=O)N2
logP: 2.62

Oc1ccc2[nH]ccc2c1
logP: 1.11

c1ccc(-c2ncc3ccccc3n2)cc1
logP: 3.42

Cc1cn([C@H]2C=C[C@@H](CO)O2)c(=O)[nH]c1=O
logP: -0.72

Cc1nc2n(c(=O)c1C)CCCC2
logP: 0.6

O=S(=O)(O)c1cccc2c(O)cccc12
logP: -0.17

C#CCC(O)(c1cccnc1)C1CCCCC1 (stereo not given)
logP: 2.09

N[C@@H](Cc1ccc(O)c(O)c1)C(=O)O
logP: -2.39

O=c1ccccc(O)c1
logP: 0.81

O=C(O)CCC(=O)c1ccccc1
logP: 1.3

c1ccc(-c2ncn[nH]2)cc1
logP: 1.54

CCCCCCCOC1OC(CO)C(O)C(O)C1O (stereo not given)
logP: 0.73

CCN(CC)C(=O)c1cccc(C)c1
logP: 2.18

COc1cc2nc(N3CCN(C(=O)C(C)OC)CC3)nc(N)c2cc1OC (stereo not given)
logP: 1.14

COc1ccc(NC(=O)CN2CCCCC2)cc1
logP: 2.52

Clc1cccc(Br)c1N=C1NCCN1
logP: 1.73

OC1c2ccccc2C2CCCCC2C1O (stereo not given)
logP: 2.47

CCOC(=O)C(C(=O)OC(C)C)=C1SCCS1
logP: 2.9

CCCCc1ccc(O)cc1
logP: 3.65

CC(C)Oc1ccc(C(=O)c2ccc3n2CCC3C(=O)O)cc1 (stereo not given)
logP: 3.38

CCCCc1ccc(CC(=O)O)cc1
logP: 3.25

OC(Cn1ccnc1)(c1ccc(-c2ccccn2)cc1)c1ccc(F)cc1F (stereo not given)
logP: 3.65

CCOC(=O)Cn1nnc2ccccc21
logP: 1.3

CCCc1ccc(CC(=O)O)cc1
logP: 3

O=C(COc1ccc(OCCNCC(O)COc2ccccc2)cc1)N1CCc2ccccc2C1 (stereo not given)
logP: 3.6

CCCCCCCCCCCCCCCC(=O)O
logP: 7.17

CCc1ccc(NC(=O)CN2CCCCC2)cc1
logP: 3.52

O=C(O)C=COc1ccccc1
logP: 2.27

CCCc1ccc(O)cc1
logP: 3.2

CCCn1c(=O)n(C)c(=O)c2nc[nH]c21
logP: 1.02

CCCCCCCCCCCC(=O)O
logP: 4.6

O=C1c2ccccc2C(=O)C1c1ccc(Br)cc1
logP: 3.76

CC(=O)OCCN1C(=O)C(OC(C)=O)N=C(c2ccccc2)c2cc(Cl)ccc21 (stereo not given)
logP: 2.74

OC(CN1CCOCC1)(c1ccc(F)cc1)c1ccc(-c2ccncc2)cc1 (stereo not given)
logP: 2.82

OC(CCN1CCCCC1)(c1ccccc1)C1CCCCC1 (stereo not given)
logP: 4.49

O=[N+]([O-])c1cc(F)ccc1F
logP: 1.86

CN(C)c1nc(N(C)C)nc(N(C)CCO)n1
logP: 1.96

Cc1ccc(N2Cn3c(nc4ccccc4c3=O)C2C)cc1 (stereo not given)
logP: 2.16

OCc1ccc(C(O)(Cn2ccnc2)c2ccc(-c3ccncc3)cc2)cc1 (stereo not given)
logP: 2.4

CCOc1ccc(Cc2cnc(N)nc2N)cc1OC
logP: 1.34

CCCCNC(=O)NCCNCC(O)COc1ccc(-c2ncc(C)[nH]2)cc1 (stereo not given)
logP: 1.24

CCNCc1ccccc1
logP: 1.82

CCN1CC(C(O)C(CC2CCCCC2)NC(=O)C(Cc2cnc[nH]2)NC(=O)C(Cc2ccc(OC)cc2)NC(=O)N(C)CCOCOCCOC)OC1=O (stereo not given)
logP: 2.03

c1ccc(-c2cn[nH]n2)cc1
logP: 1.91

C=C1C(=O)OC2CC3(C)CCCC(C)C3=CC12 (stereo not given)
logP: 3.38

CCNCC(=O)Nc1c(C)cccc1C
logP: 1.32

c1ccc(-c2ccc(-c3ccccc3)cc2)cc1
logP: 6.03

COc1cccc2c1C(=O)c1c(O)c3c(c(O)c1C2=O)C[C@@](O)(C(C)=O)C[C@@H]3O[C@H]1C[C@H](N)[C@H](O)[C@H](C)O1
logP: 1.83

COc1ccc(C(=O)OCC2OC(n3cnc4c(OC)ncnc43)C2OC(=O)c2ccc(OC)cc2)cc1 (stereo not given)
logP: 3.65

CCc1ccc2cc3ccccc3cc2c1
logP: 5.85

O=C1c2ccccc2C(=O)C1c1cccc(C(F)(F)F)c1
logP: 3.78

CC/C=C\C/C=C\C/C=C\CCCCCCCC(=O)O
logP: 6.46

CCN(CC)CCNC(=O)c1cc(Br)c(N)cc1OC
logP: 2.83

Oc1ccc(C2(O)CCN(CCCSc3ccc(F)cc3)CC2)cc1
logP: 4.17

CCC1(CC)C(=O)N=C(OC(C)C)NC1=O
logP: 1.44

CC(N)CC1CCCCCCC1 (stereo not given)
logP: 3.7

CCCNC(=O)COc1ccc(OCCNCC(O)COc2ccccc2)cc1 (stereo not given)
logP: 2.4

CCCCCCCCCCCCCc1cccc(O)c1
logP: 8.84

COc1cc(Br)c(Cc2cnc(N)nc2N)cc1OC
logP: 1.64

CCOP(=O)(Cc1ccc(-c2nc3ccccc3s2)cc1)OCC
logP: 3.5

O=C(CN1CCCC1)NCc1ccccc1
logP: 1.69

COc1ccc(N2Cn3c(nc4ccccc4c3=O)C2C)cc1 (stereo not given)
logP: 1.73

CCN1CC(C(O)C(CC2CCCCC2)NC(=O)C(Cc2cc[nH]n2)NC(=O)C(CC(=O)N2CCOCC2)Cc2ccccc2)OC1=O (stereo not given)
logP: 2.49

OC(CN1CCCC1)(c1ccc(F)cc1)c1ccc(-c2ccncc2)cc1 (stereo not given)
logP: 3.84

Cc1ccc(S(=O)(=O)NC(=O)NC2CCCCC2)cc1
logP: 2.9

CC(=O)Nc1nc(N2CCN(C)CC2)c(Cl)nc1[N+](=O)[O-]
logP: 0.5

CCOC(=O)c1cnc(-c2ccc(OCC(O)CNCCc3ccc(OC)c(OC)c3)cc2)[nH]1 (stereo not given)
logP: 2.3

OCc1cc(Cl)cc(Cl)c1O
logP: 2.3

CCS[C@@H]1O[C@H](CO)[C@H](O)[C@H](O)[C@H]1O
logP: -1.51

CCC(O)(C(N)=O)c1ccccc1 (stereo not given)
logP: 1.2

O=C(c1c(F)cccc1F)c1ccc2n1CCC2C(=O)O (stereo not given)
logP: 2.47

C#CC1(O)C(F)CC2C3CCc4cc(O)ccc4C3C(CC)CC21C (stereo not given)
logP: 4.12

COc1ccccc1N1CCN(CCCNc2cc(=O)n(C)c(=O)n2C)CC1
logP: 1.6

Clc1ccc(-c2ccccc2Cl)cc1
logP: 5.09

CC[C@@H]1C(=O)OC[C@@H]1Cc1cncn1C
logP: 0.12

N#CC(CCN1CCC(C(N)=O)(N2CCCCC2)CC1)(c1ccccc1)c1ccccc1
logP: 3.91

CC(C)OC(=O)[C@@H](N)Cc1ccc(O)c(O)c1
logP: 0.57

CCC(CC)C(=O)O
logP: 1.68

CCN1CC(C(O)C(CC2CCCCC2)NC(=O)C(Cc2cnc[nH]2)NC(=O)C(CC(=O)N(C)CCOCOCCOC)Cc2ccccc2)OC1=O (stereo not given)
logP: 2.21

[N-]=[N+]=N[C@H]1C[C@H](n2ccc(N)nc2=O)O[C@@H]1CO
logP: -0.7

CC(C)(C)c1ccc(CC(=O)O)cc1
logP: 2.98

CNC1CCc2ccccc2C1 (stereo not given)
logP: 2.38

CCN1CC(C(O)C(CC2CCCCC2)NC(=O)C(Cc2cnc[nH]2)NC(=O)C(Cc2ccc(OC)cc2)NC(=O)N2CC(O)C(O)C2)OC1=O (stereo not given)
logP: 1.22

CCN(CC)CCCCCC(=O)Nc1c(C)cccc1C
logP: 2.95

O=C1C[N+]([O-])=C(c2ccccc2)c2cc(Cl)ccc2N1
logP: 1.49

CCCCCCC(C)(C)c1cc(O)c2c(c1)OC(C)(C)[C@@H]1CC=C(CO)C[C@@H]21
logP: 7.44

Brc1cccc(N=C2NCCN2)c1Br
logP: 2.16

CCCOC(=O)CNC(=O)CCCCSc1ncnc2nc[nH]c12
logP: 1.37

CC1(C)CC(=O)CC(C)(C)N1O
logP: 0.12

CC1=C(C(=O)Nc2ccccc2-c2ccccc2)SCCO1
logP: 2.54

Nc1nc(N)c2nc(-c3ccc(O)cc3)c(N)nc2n1
logP: 0.92

CCC(C(=O)OCc1ccc(Cl)cc1)C(COC(=O)c1ccccc1)Cc1cncn1C (stereo not given)
logP: 4.9

CCC1(c2ccccc2)C(=O)N=C(OC(C)C)NC1=O (stereo not given)
logP: 1.79

COc1ccc(C(O)(Cn2ccnc2)c2ccc(Br)cc2)cc1 (stereo not given)
logP: 4.02

O=C(Cn1ccnc1[N+](=O)[O-])N(CCO)CCO
logP: -1.64

CC(C)c1nnc(SCC(=O)c2ccccc2)n(N)c1=O
logP: 2.07

CCOC(=O)CNC(=O)CNC(=O)CNC(=O)CCCCSc1ncnc2nc[nH]c12
logP: 0.21

CC1(C)C(C=C2CCSC2=O)C1C(=O)OCc1ccccc1 (stereo not given)
logP: 4.02

COCOC(=O)C1N2C(=O)C(N3C(=O)C(c4ccc(O)cc4)NC3(C)C)C2SC1(C)C (stereo not given)
logP: 0.3

O=C(c1ccc(F)cc1F)c1ccc2n1CCC2C(=O)O (stereo not given)
logP: 2.59

CN1CC=C(c2cccs2)CC1
logP: 2.51

O=C(O)c1ccc(Cl)cc1Nc1ccccc1
logP: 4.25
